Values belong to the molecule of their own block, whether it stands above or below them. Bridges are numbered along the chain shown (N, C = ends). Where no end group is shown, it is not given here. [ ]: non-standard residue; d: D form.
What was measured:
[1] = test system: rat anterior pituitary cells; assay: ACTH secretion by anterior pituitary cell cultures in the presence of a challenge dose of ovine CRF (antagonist test); assay type: cell-based; details: challenge dose of ovine CRF; relative to [D-Phe12,Nle21,38]-r/hCRF(12-41)
Source text: A straightforward assay using rat anterior pituitary cells in monolayer culture can be carried out to determine whether a candidate peptide thereof will function as a CRF agonist and stimulate ACTH secretion by activating CRF receptors on such cells. The procedure which is used is that generally set forth in Endocrinology, 91, supra. A very similar assay is used to test for antagonistic properties, using a challenge dose of oCRF or the like.
An in vivo test measuring elevation of mean arterial blood pressure as a result of iv injection is also simply and straightforwardly performed.

[2] = test system: mammalian mean arterial blood pressure; assay: in vivo test measuring elevation of mean arterial blood pressure as a result of iv injection; details: result in words; indicative of a Ucn antagonist
Source text: The peptide, Ucn(11-40), having the amino acid sequence (see SEQ ID NO: 8): […] is synthesized in the manner described in Example I. To evaluate the biological activity of a candidate peptide as a Ucn antagonist (which will be indicative of its effective binding to CRF receptors), the previously mentioned assay from Endocrinology, 91, supra, is run in the presence of a challenge dose of ovine CRF. […] An in vivo test measuring elevation of mean arterial blood pressure as a result of iv injection is also simply and straightforwardly performed.

[3] = target: CRF receptors on anterior pituitary cells in culture; assay: cell-based or functional assay
[4] = target: T1, human CRF binding protein (human, UniProt P24387 25-322); assay: competitive hCRF-BP ligand binding assay with [125I-DTyr0]hCRF
T1 construct: also called hCRF-BP; CRF-BP
T1 sequence (looked up): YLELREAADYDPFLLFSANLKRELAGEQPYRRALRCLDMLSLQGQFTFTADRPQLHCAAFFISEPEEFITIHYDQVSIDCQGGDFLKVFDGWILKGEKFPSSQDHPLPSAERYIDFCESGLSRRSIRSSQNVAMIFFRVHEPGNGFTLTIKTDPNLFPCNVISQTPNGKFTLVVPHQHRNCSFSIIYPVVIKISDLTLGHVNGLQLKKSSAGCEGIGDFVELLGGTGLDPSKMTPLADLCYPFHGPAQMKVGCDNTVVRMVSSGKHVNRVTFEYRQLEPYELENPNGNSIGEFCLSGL
Protocol: After incubating with the primary and secondary antisera for 30 minutes each, 1 ml of saline wash is added, and the test tubes are centrifuged at 2000× g for 20 minutes at 4° C. Precipitates are counted in a gamma counter. Inhibitory binding affinity constant (Kᵢ) values are determined using parameters calculated by the LIGAND computer program, Munson et al., Anal. Biochem., 107, 220 (1980), and a Vax/VMS computer system.

Molecule: H-D-Tyr-His-Leu-Leu-Arg-Thr-Leu-Leu-Glu-Leu-Ala-Arg-Thr-Gln-Ser-Gln-Arg-Glu-Glu-Ala-Glu-Lys-Asn-Arg-Ile-Ile-Phe-Asp-Ser-Val-NH2 (H-[dY]HLLRTLLELARTQSQREEAEKNRIIFDSV-NH2; lactam 19-22; SMILES CC[C@H](C)[C@H](NC(=O)[C@H](CCCNC(=N)N)NC(=O)[C@H](CC(N)=O)NC(=O)[C@@H]1CCCCNC(=O)CC[C@H](NC(=O)[C@H](CCC(=O)O)NC(=O)[C@H](CCCNC(=N)N)NC(=O)[C@H](CCC(N)=O)NC(=O)[C@H](CO)NC(=O)[C@H](CCC(N)=O)NC(=O)[C@@H](NC(=O)[C@H](CCCNC(=N)N)NC(=O)[C@H](C)NC(=O)[C@H](CC(C)C)NC(=O)[C@H](CCC(=O)O)NC(=O)[C@H](CC(C)C)NC(=O)[C@H](CC(C)C)NC(=O)[C@@H](NC(=O)[C@H](CCCNC(=N)N)NC(=O)[C@H](CC(C)C)NC(=O)[C@H](CC(C)C)NC(=O)[C@H](Cc2c[nH]cn2)NC(=O)[C@H](N)Cc2ccc(O)cc2)[C@@H](C)O)[C@@H](C)O)C(=O)N[C@@H](C)C(=O)N[C@@H](CCC(=O)O)C(=O)N1)C(=O)N[C@H](C(=O)N[C@@H](Cc1ccccc1)C(=O)N[C@@H](CC(=O)O)C(=O)N[C@@H](CO)C(=O)N[C@H](C(N)=O)C(C)C)[C@@H](C)CC)
inhibition of ACTH secretion in vitro, times as effective as the Standard Antagonist (confidence limits) [1]: 4.01 (2.32-7.05) | vasoconstrictive activity causing elevation of mean arterial blood pressure [2]: significant mammalian vasoconstrictive activity

Molecule: H-D-Pro-D-Phe-His-Leu-Leu-Arg-Thr-Leu-Leu-Glu-Leu-Ala-Arg-Thr-Gln-Ser-Gln-Arg-Glu-Glu-Ala-D-Glu-Lys-Asn-Arg-Ile-Ile-Phe-Asp-Ser-Val-NH2 (H-[dP][dF]HLLRTLLELARTQSQREEA[dE]KNRIIFDSV-NH2; lactam 20-23; SMILES CC[C@H](C)[C@H](NC(=O)[C@H](CCCNC(=N)N)NC(=O)[C@H](CC(N)=O)NC(=O)[C@@H]1CCCCNC(=O)CC[C@H](NC(=O)[C@H](CCC(=O)O)NC(=O)[C@H](CCCNC(=N)N)NC(=O)[C@H](CCC(N)=O)NC(=O)[C@H](CO)NC(=O)[C@H](CCC(N)=O)NC(=O)[C@@H](NC(=O)[C@H](CCCNC(=N)N)NC(=O)[C@H](C)NC(=O)[C@H](CC(C)C)NC(=O)[C@H](CCC(=O)O)NC(=O)[C@H](CC(C)C)NC(=O)[C@H](CC(C)C)NC(=O)[C@@H](NC(=O)[C@H](CCCNC(=N)N)NC(=O)[C@H](CC(C)C)NC(=O)[C@H](CC(C)C)NC(=O)[C@H](Cc2c[nH]cn2)NC(=O)[C@@H](Cc2ccccc2)NC(=O)[C@H]2CCCN2)[C@@H](C)O)[C@@H](C)O)C(=O)N[C@@H](C)C(=O)N[C@H](CCC(=O)O)C(=O)N1)C(=O)N[C@H](C(=O)N[C@@H](Cc1ccccc1)C(=O)N[C@@H](CC(=O)O)C(=O)N[C@@H](CO)C(=O)N[C@H](C(N)=O)C(C)C)[C@@H](C)CC)
inhibition of ACTH secretion in vitro, times as effective as the Standard Antagonist (confidence limits) [1]: 4.99 (2.26-11.55) | vasoconstrictive activity causing elevation of mean arterial blood pressure [2]: significant mammalian vasoconstrictive activity

Molecule: H-Pro-D-Phe-His-Leu-Leu-Arg-Thr-Leu-Leu-Glu-Leu-Ala-Arg-Thr-Gln-Ser-Gln-Arg-Glu-Glu-Ala-D-Glu-Lys-Asn-Arg-Ile-Ile-Phe-Asp-Ser-Val-NH2 (H-P[dF]HLLRTLLELARTQSQREEA[dE]KNRIIFDSV-NH2; lactam 20-23; SMILES CC[C@H](C)[C@H](NC(=O)[C@H](CCCNC(=N)N)NC(=O)[C@H](CC(N)=O)NC(=O)[C@@H]1CCCCNC(=O)CC[C@H](NC(=O)[C@H](CCC(=O)O)NC(=O)[C@H](CCCNC(=N)N)NC(=O)[C@H](CCC(N)=O)NC(=O)[C@H](CO)NC(=O)[C@H](CCC(N)=O)NC(=O)[C@@H](NC(=O)[C@H](CCCNC(=N)N)NC(=O)[C@H](C)NC(=O)[C@H](CC(C)C)NC(=O)[C@H](CCC(=O)O)NC(=O)[C@H](CC(C)C)NC(=O)[C@H](CC(C)C)NC(=O)[C@@H](NC(=O)[C@H](CCCNC(=N)N)NC(=O)[C@H](CC(C)C)NC(=O)[C@H](CC(C)C)NC(=O)[C@H](Cc2c[nH]cn2)NC(=O)[C@@H](Cc2ccccc2)NC(=O)[C@@H]2CCCN2)[C@@H](C)O)[C@@H](C)O)C(=O)N[C@@H](C)C(=O)N[C@H](CCC(=O)O)C(=O)N1)C(=O)N[C@H](C(=O)N[C@@H](Cc1ccccc1)C(=O)N[C@@H](CC(=O)O)C(=O)N[C@@H](CO)C(=O)N[C@H](C(N)=O)C(C)C)[C@@H](C)CC)
inhibition of ACTH secretion in vitro, times as effective as the Standard Antagonist (confidence limits) [1]: 2.74 (1.02-8.02) | vasoconstrictive activity causing elevation of mean arterial blood pressure [2]: significant mammalian vasoconstrictive activity

Molecule: H-D-Phe-His-Leu-Leu-Arg-Thr-Leu-Leu-Glu-Leu-Ala-Arg-Thr-Gln-Ser-Gln-Arg-Glu-Arg-Ala-Glu-Gln-Asn-Arg-Ile-Ile-Phe-Asp-Ser-Val-NH2 (H-[dF]HLLRTLLELARTQSQRERAEQNRIIFDSV-NH2; SMILES CC[C@H](C)[C@H](NC(=O)[C@H](CCCNC(=N)N)NC(=O)[C@H](CC(N)=O)NC(=O)[C@H](CCC(N)=O)NC(=O)[C@H](CCC(=O)O)NC(=O)[C@H](C)NC(=O)[C@H](CCCNC(=N)N)NC(=O)[C@H](CCC(=O)O)NC(=O)[C@H](CCCNC(=N)N)NC(=O)[C@H](CCC(N)=O)NC(=O)[C@H](CO)NC(=O)[C@H](CCC(N)=O)NC(=O)[C@@H](NC(=O)[C@H](CCCNC(=N)N)NC(=O)[C@H](C)NC(=O)[C@H](CC(C)C)NC(=O)[C@H](CCC(=O)O)NC(=O)[C@H](CC(C)C)NC(=O)[C@H](CC(C)C)NC(=O)[C@@H](NC(=O)[C@H](CCCNC(=N)N)NC(=O)[C@H](CC(C)C)NC(=O)[C@H](CC(C)C)NC(=O)[C@H](Cc1c[nH]cn1)NC(=O)[C@H](N)Cc1ccccc1)[C@@H](C)O)[C@@H](C)O)C(=O)N[C@H](C(=O)N[C@@H](Cc1ccccc1)C(=O)N[C@@H](CC(=O)O)C(=O)N[C@@H](CO)C(=O)N[C@H](C(N)=O)C(C)C)[C@@H](C)CC) [[D-Phe^11]-Ucn(11-40)]
inhibition of ACTH secretion in vitro, times as effective as the Standard Antagonist (confidence limits) [1]: 0.551 (0.333-0.857) | vasoconstrictive activity causing elevation of mean arterial blood pressure [2]: significant mammalian vasoconstrictive activity

Molecule: H-D-Phe-His-Leu-Leu-Arg-Thr-Leu-Leu-Glu-Leu-Ala-Arg-Thr-Gln-Ser-Gln-Arg-Glu-Glu-Ala-D-Glu-Lys-Asn-Arg-Ile-Ile-Phe-Asp-Ser-Val-NH2 (H-[dF]HLLRTLLELARTQSQREEA[dE]KNRIIFDSV-NH2; lactam 19-22 (inferred))
inhibition of ACTH secretion in vitro, times as effective as the Standard Antagonist (confidence limits) [1]: 4.72 (2.19-10.00) | vasoconstrictive activity causing elevation of mean arterial blood pressure [2]: significant mammalian vasoconstrictive activity

Molecule: H-D-Phe-His-Leu-Leu-Arg-Thr-Leu-Leu-Glu-Leu-Ala-Arg-Thr-Gln-Ser-Gln-Arg-Glu-Glu-Ala-Glu-Lys-Asn-Arg-Ile-Ile-Phe-Asp-Ser-Val-NH2 (H-[dF]HLLRTLLELARTQSQREEAEKNRIIFDSV-NH2; lactam 19-22 (inferred))
inhibition of ACTH secretion in vitro, times as effective as the Standard Antagonist (confidence limits) [1]: 10.34 (4.27-25.58) | vasoconstrictive activity causing elevation of mean arterial blood pressure [2]: significant mammalian vasoconstrictive activity

antagonism of ACTH secretion under a challenge dose of ovine CRF, potency relative to the Standard Antagonist [D-Phe12, Nle21,38]-r/hCRF(12-41) (times Standard Antagonist) [3]: 0.551
B1: [D-Phe11]-Ucn(11-40) (peptide)
peptide: [dF]HLLRTLLELARTQSQRERAEQNRIIFDSV-NH2
modifications: N-terminus assumed
SMILES: CC[C@H](C)[C@H](NC(=O)[C@H](CCCNC(=N)N)NC(=O)[C@H](CC(N)=O)NC(=O)[C@H](CCC(N)=O)NC(=O)[C@H](CCC(=O)O)NC(=O)[C@H](C)NC(=O)[C@H](CCCNC(=N)N)NC(=O)[C@H](CCC(=O)O)NC(=O)[C@H](CCCNC(=N)N)NC(=O)[C@H](CCC(N)=O)NC(=O)[C@H](CO)NC(=O)[C@H](CCC(N)=O)NC(=O)[C@@H](NC(=O)[C@H](CCCNC(=N)N)NC(=O)[C@H](C)NC(=O)[C@H](CC(C)C)NC(=O)[C@H](CCC(=O)O)NC(=O)[C@H](CC(C)C)NC(=O)[C@H](CC(C)C)NC(=O)[C@@H](NC(=O)[C@H](CCCNC(=N)N)NC(=O)[C@H](CC(C)C)NC(=O)[C@H](CC(C)C)NC(=O)[C@H](Cc1c[nH]cn1)NC(=O)[C@H](N)Cc1ccccc1)[C@@H](C)O)[C@@H](C)O)C(=O)N[C@H](C(=O)N[C@@H](Cc1ccccc1)C(=O)N[C@@H](CC(=O)O)C(=O)N[C@@H](CO)C(=O)N[C@H](C(N)=O)C(C)C)[C@@H](C)CC

binding result [4]: binds
Molecule: LSIDLTFHLLRTLLELARTQSQRERAEQ (Printed without NH2 at the C-terminus) [Ucn(5-32)]

ACTH secretion, anterior pituitary cell cultures, potency relative to r/hCRF [3]: 3.1 times r/hCRF
Molecule: DNPSLSIDLTFHLLRTLLELARTQSQRERAEQNRIIFDSV-NH2 [Human Ucn(1-40)]

EC50, secretion of ACTH in cultured rodent pituitary cells [3]: 6 pM
Molecule: DDPPLSIDLTFHLLRTLLELARTQSQRERAEQNRIIFDSV-NH2 [rat urocortin (rat Ucn)]
